# According to the supplement of paper PMC10307832:
# Tests used:
# Assay in all cases: relative viability (nuclei count vs DMSO), 5 days (fraction); higher = more cells survive
# RERF-LC-KJ = system: RERF-LC-KJ
# Method in brief: (§1)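 Relative viability was taken as the ratio of nuclei in treated wells to nuclei in vehicle wells. Lung cancer cell lines in 1536-well plates received compounds by pin tool one day after seeding, either one drug alone or a fixed anchor-drug dose plus five library-drug doses (not always all listed) in √10 steps. Nuclei were counted on 4× images after 5 days of treatment, and values are medians of duplicate plates.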
# NCI-H596 = system: NCI-H596
# Method in brief: as §1
# NCI-H1993 = system: NCI-H1993
# Method in brief: as §1
# COR-L 105 = system: COR-L 105
# Method in brief: as §1
# NCI-H1651 = system: NCI-H1651
# Method in brief: as §1
# NCI-H2087 = system: NCI-H2087
# Method in brief: as §1
# HOP-62 = system: HOP-62
# Method in brief: as §1
# NCI-H2170 = system: NCI-H2170
# Method in brief: as §1
# LXF-289 = system: LXF-289
# Method in brief: as §1
# COR-L23 = system: COR-L23
# Method in brief: as §1
# NCI-H2085 = system: NCI-H2085
# Method in brief: as §1
# NCI-H1975 = system: NCI-H1975
# Method in brief: as §1
# NCI-H2023 = system: NCI-H2023
# Method in brief: as §1
# PC-14 = system: PC-14
# Method in brief: as §1
# NCI-H3122 = system: NCI-H3122
# Method in brief: as §1
# NCI-H647 = system: NCI-H647
# Method in brief: as §1
# SK-MES-1 = system: SK-MES-1
# Method in brief: as §1
# CAL-12T = system: CAL-12T
# Method in brief: as §1
# A-427 = system: A-427
# Method in brief: as §1
# EPLC-272H = system: EPLC-272H
# Method in brief: as §1
# NCI-H1395 = system: NCI-H1395
# Method in brief: as §1
structure (smiles),measurement,setting,value
CCCCCCCCCCCC1=C(O)C(=O)C=C(O)C1=O [Embelin] + CC1(C)CCC(c2ccc(Cl)cc2)=C(CN2CCN(c3ccc(C(=O)NS(=O)(=O)c4ccc(N[C@H](CCN5CCOCC5)CSc5ccccc5)c(S(=O)(=O)C(F)(F)F)c4)cc3)CC2)C1 [Navitoclax] (partner 0.5 µM),relative viability,RERF-LC-KJ; first compound 0.08 µM,0.963
same,relative viability,RERF-LC-KJ; first compound 0.8 µM,1.14
same,relative viability,RERF-LC-KJ; first compound 2.53 µM,0.808
same,relative viability,RERF-LC-KJ; first compound 8 µM,0.821
same,relative viability,NCI-H596; first compound 0.08 µM,0.934
same,relative viability,NCI-H596; first compound 0.8 µM,1.06
same,relative viability,NCI-H596; first compound 2.53 µM,1.12
same,relative viability,NCI-H596; first compound 8 µM,0.908
same,relative viability,NCI-H1993; first compound 0.08 µM,0.958
same,relative viability,NCI-H1993; first compound 0.8 µM,0.84
same,relative viability,NCI-H1993; first compound 2.53 µM,0.916
same,relative viability,NCI-H1993; first compound 8 µM,0.893
same,relative viability,COR-L 105; first compound 0.08 µM,0.758
same,relative viability,COR-L 105; first compound 0.8 µM,1.04
same,relative viability,COR-L 105; first compound 2.53 µM,0.748
same,relative viability,COR-L 105; first compound 8 µM,0.795
same,relative viability,NCI-H1651; first compound 0.08 µM,0.926
same,relative viability,NCI-H1651; first compound 0.8 µM,1.19
same,relative viability,NCI-H1651; first compound 2.53 µM,1.02
same,relative viability,NCI-H1651; first compound 8 µM,1.09
same,relative viability,NCI-H2087; first compound 0.08 µM,0.892
same,relative viability,NCI-H2087; first compound 0.8 µM,1.17
same,relative viability,NCI-H2087; first compound 2.53 µM,0.93
same,relative viability,NCI-H2087; first compound 8 µM,0.989
same,relative viability,HOP-62; first compound 0.08 µM,0.882
same,relative viability,HOP-62; first compound 0.8 µM,1.16
same,relative viability,HOP-62; first compound 2.53 µM,1.09
same,relative viability,HOP-62; first compound 8 µM,1.22
same,relative viability,NCI-H2170; first compound 0.08 µM,0.641
same,relative viability,NCI-H2170; first compound 0.8 µM,0.678
same,relative viability,NCI-H2170; first compound 2.53 µM,0.698
same,relative viability,NCI-H2170; first compound 8 µM,0.547
same,relative viability,LXF-289; first compound 0.08 µM,1.01
same,relative viability,LXF-289; first compound 0.8 µM,0.959
same,relative viability,LXF-289; first compound 2.53 µM,1.03
same,relative viability,LXF-289; first compound 8 µM,0.953
same,relative viability,COR-L23; first compound 0.08 µM,0.991
same,relative viability,COR-L23; first compound 0.8 µM,1.32
same,relative viability,COR-L23; first compound 2.53 µM,1.19
same,relative viability,COR-L23; first compound 8 µM,1.22
same,relative viability,NCI-H2085; first compound 0.08 µM,1.09
same,relative viability,NCI-H2085; first compound 0.8 µM,1.31
same,relative viability,NCI-H2085; first compound 2.53 µM,1.2
same,relative viability,NCI-H2085; first compound 8 µM,1
same,relative viability,NCI-H1975; first compound 0.08 µM,1.13
same,relative viability,NCI-H1975; first compound 0.8 µM,1.29
same,relative viability,NCI-H1975; first compound 2.53 µM,1.13
same,relative viability,NCI-H1975; first compound 8 µM,1.11
same,relative viability,NCI-H2023; first compound 0.08 µM,1.05
same,relative viability,NCI-H2023; first compound 0.8 µM,1.05
same,relative viability,NCI-H2023; first compound 2.53 µM,1.02
same,relative viability,NCI-H2023; first compound 8 µM,0.689
same,relative viability,PC-14; first compound 0.08 µM,0.968
same,relative viability,PC-14; first compound 0.8 µM,1.05
same,relative viability,PC-14; first compound 2.53 µM,0.997
same,relative viability,PC-14; first compound 8 µM,1.06
same,relative viability,NCI-H3122; first compound 0.08 µM,1.05
same,relative viability,NCI-H3122; first compound 0.8 µM,1.01
same,relative viability,NCI-H3122; first compound 2.53 µM,0.985
same,relative viability,NCI-H3122; first compound 8 µM,1.02
same,relative viability,NCI-H647; first compound 0.08 µM,1.25
same,relative viability,NCI-H647; first compound 0.8 µM,1.35
same,relative viability,NCI-H647; first compound 2.53 µM,1.21
same,relative viability,NCI-H647; first compound 8 µM,1.2
same,relative viability,SK-MES-1; first compound 0.08 µM,1.23
same,relative viability,SK-MES-1; first compound 0.8 µM,1.32
same,relative viability,SK-MES-1; first compound 2.53 µM,1.25
same,relative viability,SK-MES-1; first compound 8 µM,1.43
same,relative viability,CAL-12T; first compound 0.08 µM,1.12
same,relative viability,CAL-12T; first compound 0.8 µM,1.41
same,relative viability,CAL-12T; first compound 2.53 µM,1.23
same,relative viability,CAL-12T; first compound 8 µM,1.24
same,relative viability,A-427; first compound 0.08 µM,0.975
same,relative viability,A-427; first compound 0.8 µM,0.929
same,relative viability,A-427; first compound 2.53 µM,0.939
same,relative viability,A-427; first compound 8 µM,1
same,relative viability,EPLC-272H; first compound 0.08 µM,1.07
same,relative viability,EPLC-272H; first compound 0.8 µM,1.34
same,relative viability,EPLC-272H; first compound 2.53 µM,1.21
same,relative viability,EPLC-272H; first compound 8 µM,1.11
same,relative viability,NCI-H1395; first compound 0.08 µM,1.18
same,relative viability,NCI-H1395; first compound 0.8 µM,1.42
same,relative viability,NCI-H1395; first compound 2.53 µM,1.18
same,relative viability,NCI-H1395; first compound 8 µM,0.982
